# Results from patent US20140294849A1, “COMPOSITIONS AND USES” (GLAXOSMITHKLINE BIOLOGICALS SA, priority 2011, published 2014).
# Where two headings read alike, the source gives them in different places. No end group written: not given here.
# How the values were obtained:
# [1] = test system: spatial learning and memory; assay: T-water maze in APP/PS1 mice; type: in vivo, APPSwe/PS1 mice; conditions: for behaviour as assessed by T water maze testing: Example 21, twelve weekly injections, vs non treated mice; for cognitive functions, T-water maze: Example 22, vs PBS
# Procedure: Five groups of APPSwe/PS1 mice received one a week for a period of 12 weeks the following treatment: • Gr1: APPSwe/PS1+NaCl 0.9% n(=20), i.p. injections • Gr4: APPSwe/PS1+CRX527 (20 μg/mouse, 130 μl, n=10), i.p. injections • Gr5: […] (50 μg/mouse, 130 μl, n=10), i.p. injections • Gr8 APPSwe/PS1+AS15 ( 1/10th of human dose, 50 μl, n=10), i.m. injections • Gr9: APPSwe/PS1+AS01B ( 1/10th of human dose, 50 μl, n=10), i.m. injections
# Mice were tested during the “light on” phase of the day. Behavioral experimenter was blinded to the genetic and treatment status of animals. To assess hippocampal-dependent spatial learning and memory, mice were trained in the T-water maze task. In this paradigm, we evaluate the mouse's ability to remember the spatial location of submerged platform. The T-maze apparatus (length of stem, 64 cm; length of arms, 30 cm; width, 12 cm; height of walls, 16 cm) was made of clear fiberglass and filled with water (23±1° C.) at a height of 12 cm. A platform (11×11 cm) was placed at the end of the target arm and was submerged 1 cm below the surface. The acquisition phase allows to evaluate animals for left-right spatial learning. During the first two trials, platforms were placed on each arms of the maze to test the spontaneous turning preference of the mouse. After these two trials, the least chosen arm was reinforced by the escape platform. The mice were placed in the stem of the T-maze and choose to swim either left or right until they found the submerged platform and escape to it, to a maximum of 60 s. After reaching the platform, the mice remained on it for 20 s and then were immediately placed back in the maze. […] Repeated trials were presented on the same day up to a maximum of 48 trials. A rest period of at least 10-15 min intervened between each block of 10 trials. A mouse was considered to have learned the task when it made no errors in a block of five consecutive trials. The reversal learning phase was then conducted 48 h later. During this phase, the same protocol was repeated, except that the mice were trained to find the escape platform on the opposite side to that on which they had learned on acquisition phase. The number of trials to reach the criterion (five of five correct choices made on consecutive trials) was measured as well as the latency to find the escape platform.
# [2] = test system: Lineage-CD11b+ monocytes in peripheral blood; assay: Monocyte analysis and counting after adjuvant injection in mice; type: in vivo, C57BL/6 mice
# Procedure: (§1) 24-Hours after injection of the TLR adjuvants, peripheral blood was drawn from C57BL/6 mice via cardiac puncture with lithium-heparin as anticoagulant. Red blood cell lysis was performed twice on pooled blood with Ammonium Chloride-based Buffer (Sigma, Steinheim, Germany) and cells were counted with the EasyCount™ System (Immunicon). […] Cells were finally washed three times and fixed for 15 min. with a 2% paraformaldehyde solution in PBS. Fluorescence minus one (FMO) controls were always included in the assays for fluorescent compensation setting. Samples were acquired on a flow cytometer (BD FACSCanto II) and data analyzed with the FACSDiva software (BD Biosciences). Monocytes were identified by their Side/Forward scatter properties and gated as CD3-/CD45R/B220-/Ly-6G-/NK1.1-(Lineage-)/CD11b+ cells. CD11b+ monocyte frequency was reported as a percentage of the total cells excluding debris.
# as §1, with “24 hours” for “24-Hours”, “each immunomodulator,” for “the TLR adjuvants,”, “min” for “min.”, “monocytes” for “monocyte”
# Cells were finally washed twice and fixed for 15 min. with a 2% paraformaldehyde solution in PBS. FMOs controls were always included in the assays. Samples were acquired on a flow cytometer (BD FACSCanto II) and data analyzed with the FACSDiva software (BD Biosciences). Monocytes were identified and counted by their Side/Forward scatter properties, excluding debris and gated as CD3-/CD45R/B220-/Ly-6G-/NK1.1-(Lineage-)/CD11 b+ cells.
# [3] = test system: Aβ plaques; assay: Aβ total plaque loading, stereological analysis of brain sections; type: in vivo, APPSwe/PS1 mice
# [4] = test system: cytokines and chemokines in sera; type: in vivo, C57BL/6 mice; conditions: for levels of TNF-α and IL-6: i.p.
# Procedure: Mice (n=5) received 50 μl of adjuvant formulations by i.m. injection for the PBS, AS03, AS01B and AS04D. PBS or LPS or MPL were injected using the intraperitoneal route and sera were collected at 2 and 6 h time points. Whole blood was collected by cardiac puncture from mice and centrifuged on a vacutainer blood collection tube containing gel for serum separation. Serum samples were cleared by centrifugation and stored at −80° C. until analysis. Protein levels in the cleared sera samples were measured by cytokine-specific beads (Millipore, USA) using the Luminex™ platform.
# To determine whether the low inflammatory response observed in the previous in vitro experiments can be reproduced in vivo, we measured several cytokines and chemokines in the sera of C57BL/6 mice 2 and 6 h following a single intraperitoneal injection of either MPL or LPS. […] Noteworthy, IL-1β is not increased in response to MPL in contrast to LPS treatment.
# [5] = test system: human microglial cell line CHME; assay: Phagocytosis of beta-amyloid 1-42 peptide by CHME cells; type: cell-based; conditions: Example 18
# Procedure: Phagocytosis of beta-amyloid 1-42 peptide by the human microglial cell line CHME was observed after the addition of TLR2 agonist containing adjuvants Protollin and Pam3CysLip peptide. […] The synthetic peptide sequence of the Pam3Cys Lip peptide is described herein: Pam3Cys—SQ EPAAPAAEAT PAAEAP. Protollin was used at concentration 1 ug per ml based on the LPS content from Shigella flexneri. Pam3Cys lip peptide was used at concentration of 5 ug per ml of the pure tri-palmitoylated peptide.
# Additionally, cells were imaged using 42 HiLyte 488 Fluo (Anaspec, Inc.) at 2 ug per ml in DMEM complete media (Invitrogen). Lysotracker red staining was performed and slides were mounted and co-stained with DAPI to show the nucleus (blue). […] Lysotracker red reagent was purchased from Invitrogen and used as manufacturer recommendations.
# [6] = test system: CD11b+ peripheral blood monocytes; assay: Ex vivo uptake assay of Aβ1-42; type: cell-based, C57BL/6 mice; conditions: Example 19, FIG. 20; QS21 5 μg i.m.
# Procedure: Preparation of cells: Peripheral blood was drawn from C57BL/6 mice via cardiac puncture with lithium-heparin as anticoagulant, 24-hours after injection of the adjuvants used herein. Red blood cell lysis was performed twice on pooled blood with Ammonium Chloride-based Buffer (Sigma, Steinheim, Germany) and cells were counted with the EasyCount™ System (Immunicon). […]
# FACS analysis: cells were harvested after incubation with fluorescent Aβ peptide with Trypsin/EDTA and cold PBS and washed three times. 500,000 cells were incubated in 96-well plate for 10 min. on ice in the presence of Rat anti-Mouse CD16/CD32 (clone 2.4G2—BD Fc Block™) and further stained for 30 min. with a combination of the following directly conjugated antibodies at their pre-determined optimal concentration: PE-Hamster anti-Mouse CD3 (clone 145-2C11), Rat anti-Mouse CD45R/B220 (clone RA3-6B2), Rat anti-Mouse Ly-6G (clone 1A8), Mouse anti-Mouse NK1.1 (clone PK136), APC-conjugated Rat anti-Mouse CD11b (clone M1/70), PE-Cy7-conjugated Hamster anti-Mouse CD11c (clone HL3), (all from BD PharMingen). […]
# Samples were acquired on a flow cytometer (BD FACSCanto II) and data analyzed with the FACSDiva software (BD Biosciences). […]
compound,measurement,setting,value
3-O-desacyl-4′-monophosphoryl lipid A [3D MPL],"T-water tests, combined data of Example 21 and 22","[1]; ANOVA-2 tests, FIG. 27C",statistical significance
same,behaviour as assessed by T water maze testing,[1],significant improvements in behaviour
same,"cognitive functions, T-water maze","[1]; i.m. 12x weekly, CRX601 2 μg, CRX601 2 ug in AS03, 3D MPL 5 ug, AS01B 1/10 human dose, unpaired t-tests",significant improvement of their cognitive functions
same,"cognitive functions, T-water maze","[1]; intra peritoneal 50 ug per mouse, 12x weekly",significant improvement of their cognitive functions
same,number of CD11b+ monocytes compared to the PBS control,"[2]; Example 9, 5 ug/mouse, i.m.",about double
same,monocyte numbers,"[2]; Example 10, single i.m. injection, at 5 and 25 ug/mouse dose",stimulate monocyte numbers
same,"plaque loading, combined data of Example 21 and 22","[3]; ANOVA-2, P<0.01, intra peritoneal",statistical significant plaque loading reduction
same,brain histology of amyloid plaques,"[3]; Example 21, FIG. 26, immunofluorescence 6E10",more compacted plaques with less total area
same,Amyloid beta plaque number,"[3]; Example 21, 50 μg/mouse i.p., once a week for 12 weeks",statistically significant reduction in Amyloid beta plaque number
same,Aβ amyloid plaque level in the brain,"[3]; Example 22, FIG. 27B, intra peritoneal route",trend of reducing the Aβ amyloid plaque
same,levels of TNF-α and IL-6,[4]; 2 h post injection,modest increase
same,innate cytokine profile,"[4]; Example 28, 3D MPL i.p., AS01B i.m., data not shown",attenuated cytokine profile compared to LPS
same,most of the cytokine and chemokine levels,"[4]; Example 28, single intraperitoneal injection, 2 and 6 h",substantially lower than those of LPS-treated animals
same,levels of TNF-α and IL-6,[4]; after 6 h,essentially abolished
same,IL-1β,"[4]; single i.p. injection, in contrast to LPS",not increased
"Pam3Cys—SQ EPAAPAAEAT PAAEAP (Pam3Cys-SQEPAAPAAEATPAAEAP) [Pam3CysLip peptide, TLR2 agonist, tri-palmitoylated peptide]",phagocytosis,"[5]; 5 ug per ml, pre-incubation 18 hrs",86 % of cells
same,amyloid phagocytic activity,"[5]; compared to PBS, Protollin 1 ug per ml, Pam3Cys lip peptide 5 ug per ml",higher amyloid phagocytic activity
QS21 [reference compound],Aβ uptake by peripheral blood monocytes,[6],does not promote Aβ uptake
same,activated Ly6C+ monocytes,"[2]; Example 19, single i.m. injection, 24 hrs",75%
same,number of monocytes,"[2]; Example 19, single i.m. injection, after 24 hrs, QS21 5 μg",9.1 % of total peripheral white blood cells
CCCCCCCCCCC[C@H](CC(=O)N[C@H]1[C@H](OC[C@H](NC(=O)C[C@@H](CCCCCCCCCCC)OC(=O)CCCCCCCCC)C(=O)O)O[C@H](CO)[C@@H](OP(=O)(O)O)[C@@H]1OC(=O)C[C@@H](CCCCCCCCCCC)OC(=O)CCCCCCCCC)OC(=O)CCCCCCCCC [CRX527],behaviour as assessed by T water maze testing,[1],significant improvements in behaviour
